pEC50: −log10 of the molar value. Entries after “also recorded” stand apart in the source; their conditions may differ.
System: coronin 1 promoter
Assay: EC50 analysis for coronin 1 promoter driven GFP inhibition by flow cytometry in RBL cells
Assay type: cell-based
Conditions: Amlodipine 3.125 μM, verapamil 8 μM, 48 h, flow cytometry
Protocol: RBL cells that had been incubated with the indicated calcium channel blockers (amlodipine (3.125 μM) and verapamil (8 μM) concentrations for 48 h were analyzed by flow cytometry for any alteration in coronin 1 promoter driven GFP fluorescence. The results reveal no effect of calcium channel blockers on coronin 1 promoter activity (FIG. 4).
(§1) RBL cells expressing GFP under coronin 1 promoter and optionally with RBL cells expressing RFP under CMV promoter were mixed in equal numbers and incubated with the compounds at indicated concentrations for 48-65 h and analyzed by flow cytometry for alteration in coronin 1 promoter (GFP fluorescence), CMV promoter (RFP fluorescence) values. In addition, the cells were labelled with live-dead marker for assessing cell viability status by flow cytometry. Cycloheximide (CHX) serves as positive control and DMSO serves as negative controls. Effective Concentration (EC50) values for coronin 1 promoter inhibition via GFP fluorescence analysis, non-specific promoter inhibition via CMV promoter driven-RFP fluorescence analysis and cell viability via live/dead staining as a measure for toxicity in flow cytometry for compounds (10-22 and 50a-65a) are shown in Table 6 and Table 7. Based on the EC50 analysis of the inhibition of coronin 1 promoter driven GFP fluorescence the (4S,7R)-configurated eutomers were identified (Structures FIG. 9A-C). This is exemplified for compounds containing two stereocenters by eutomers 11c and 13a. […] Subsequent EC50 evaluations (Table 7) were performed with compound 13a as standard for relative potency normalized to a value of 1.00 (relative potency calculated as [EC50 GFP inhibition 13a]/[EC50 GFP inhibition compound of interest]).

For CCOC(=O)C1=C(COCCN)NC(C)=C(C(=O)OC)C1c1ccccc1Cl (stereo not drawn) [Amlodipine, reference compound], the “coronin 1 promoter activity as assessed by GFP reduction” value was “no effect”.
In the case of COc1ccc(CCN(C)CCCC(C#N)(c2ccc(OC)c(OC)c2)C(C)C)cc1OC (stereo not drawn) [verapamil, reference compound], the “coronin 1 promoter activity as assessed by GFP reduction” value was “no effect; also recorded: not inhibiting coronin 1 promoter activity”.

Same assay, conditions: RBL, RBL cells, 48-65 h, flow cytometry

COc1ccccc1[C@H]1CC(=O)C2=C(C1)NC(C)=C(C(=O)OC[C@@H]1CCCO1)[C@H]2c1cccc(O)c1 (racemic) [12c, tetrahydro-2-furanylmethyl-4-(3-hydroxyphenyl)-7-(2-methoxyphenyl)-2-methyl-5-oxo-1,4,5,6,7,8-hexahydro-3-quinolinecarboxylate] gave a pEC50 of 6.70.

Same assay, conditions: [EC50 GFP inhibition 13a]/[EC50 GFP inhibition compound of interest]; 13a = 1.00

Going from COc1ccccc1[C@H]1CC(=O)C2=C(C1)NC(C)=C(C(=O)OC1CCCOCC1)[C@H]2c1cccc(O)c1 (mixture of isomers) [54a, oxepan-4-yl 4-(3-hydroxyphenyl)-7-(2-methoxyphenyl)-2-methyl-5-oxo-1,4,5,6,7,8-hexahydroquinoline-3-carboxylate] to COc1ccccc1[C@@H]1CC(=O)C2=C(C1)NC(C)=C(C(=O)OC1CCOCC1)[C@@H]2c1cccc(O)c1 [13d, tetrahydro-2H-pyran-4-yl-4-(3-hydroxyphenyl)-7-(2-methoxyphenyl)-2-methyl-5-oxo-1,4,5,6,7,8-hexahydro-3-quinolinecarboxylate], the “rel. potency GFP inhibition” value falls from 0.88 to 0.09.

COc1ccccc1[C@H]1CC(=O)C2=C(C1)NC(C)=C(C(=O)OC1CCOCC1)C2c1ccc(F)c(O)c1 (mixture of isomers) [66b, tetrahydro-2H-pyran-4-yl 4-(4-fluoro-3-hydroxyphenyl)-7-(2-methoxyphenyl)-2-methyl-5-oxo-1,4,5,6,7,8-hexahydroquinoline-3-carboxylate] and COc1ccccc1C1CC(=O)C2=C(C1)NC(C)=C(C(=O)OC1CCOCC1)C2c1ccc(F)c(O)c1F (racemic) [67b, tetrahydro-2H-pyran-4-yl 4-(2,4-difluoro-3-hydroxyphenyl)-7-(2-methoxyphenyl)-2-methyl-5-oxo-1,4,5,6,7,8-hexahydroquinoline-3-carboxylate] are the same in “rel. potency GFP inhibition” value: 0.25 for the first, 0.25 for the second.

First: COc1ccccc1[C@H]1CC(=O)C2=C(C1)NC(C)=C(C(=O)OC[C@H]1CCCO1)[C@H]2c1cccc(O)c1 [12g, tetrahydro-2-furanylmethyl (4S, 7R)-4-(3-hydroxyphenyl)-7-(2-methoxyphenyl)-2-methyl-5-oxo-1,4,5,6,7,8-hexahydro-3-quinolinecarboxylate]
Second: CCOC(=O)C1=C(C)NC2=C(C(=O)C[C@H](c3ccccc3OC)C2)[C@@H]1c1cccc(O)c1 [58a, ethyl (4S, 7R)-4-(3-hydroxyphenyl)-7-(2-methoxyphenyl)-2-methyl-5-oxo-1,4,5,6,7,8-hexahydroquinoline-3-carboxylate]
The “rel. potency GFP inhibition” value of the first is higher: 1.00 for the first, 0.36 for the second.

First: COc1ccccc1[C@H]1CC(=O)C2=C(C1)NC(C)=C(C(=O)O[C@H]1CCOC1)[C@H]2c1cccc(O)c1 [50a, tetrahydrofuran-3-yl (4S, 7R)-4-(3-hydroxyphenyl)-7-(2-methoxyphenyl)-2-methyl-5-oxo-1,4,5,6,7,8-hexahydroquinoline-3-carboxylate]
Second: COc1ccccc1[C@H]1CC(=O)C2=C(C1)NC(C)=C(C(=O)O[C@@H]1CCOC1)[C@H]2c1cccc(O)c1 [50b, tetrahydrofuran-3-yl (4S, 7R)-4-(3-hydroxyphenyl)-7-(2-methoxyphenyl)-2-methyl-5-oxo-1,4,5,6,7,8-hexahydroquinoline-3-carboxylate]
The “rel. potency GFP inhibition” value of the first is lower: 0.73 for the first, 1.23 for the second.

Compared with COc1ccccc1[C@H]1CC(=O)C2=C(C1)NC(C)=C(C(=O)OC1(C)CCOCC1)[C@H]2c1cccc(O)c1 [51a, 4-methyltetrahydro-2H-pyran-4-yl (4S, 7R)-4-(3-hydroxyphenyl)-7-(2-methoxyphenyl)-2-methyl-5-oxo-1,4,5,6,7,8-hexahydroquinoline-3-carboxylate], COc1ccccc1[C@H]1CC(=O)C2=C(C1)NC(C)=C(C(=O)OC1CCCC1)[C@H]2c1cccc(O)c1 [56a, cyclopentyl (4S, 7R)-4-(3-hydroxyphenyl)-7-(2-methoxyphenyl)-2-methyl-5-oxo-1,4,5,6,7,8-hexahydroquinoline-3-carboxylate] is lower in “rel. potency GFP inhibition” value: 1.13 for the first, 0.21 for the second.

Going from COc1ccccc1[C@H]1CC(=O)C2=C(C1)NC(C)=C(C(=O)OC1CC(C)(C)OC(C)(C)C1)[C@H]2c1cccc(O)c1 [52a, 2,2,6,6-tetramethyltetrahydro-2H-pyran-4-yl (4S, 7R)-4-(3-hydroxyphenyl)-7-(2-methoxyphenyl)-2-methyl-5-oxo-1,4,5,6,7,8-hexahydroquinoline-3-carboxylate] to COc1ccccc1[C@H]1CC(=O)C2=C(C1)NC(C)=C(C(=O)OC1CCCCC1)[C@H]2c1cccc(O)c1 [57a, cyclohexyl (4S, 7R)-4-(3-hydroxyphenyl)-7-(2-methoxyphenyl)-2-methyl-5-oxo-1,4,5,6,7,8-hexahydroquinoline-3-carboxylate], the “rel. potency GFP inhibition” value falls from 0.62 to 0.24.

Compared with COc1ccccc1[C@H]1CC(=O)C2=C(C1)NC(C)=C(C(=O)OC1CC3CCC(C1)O3)[C@H]2c1cccc(O)c1 (stereo partly drawn) [53a, 8-oxabicyclo[3.2.1]octan-3-yl (4S, 7R)-4-(3-hydroxyphenyl)-7-(2-methoxyphenyl)-2-methyl-5-oxo-1,4,5,6,7,8-hexahydroquinoline-3-carboxylate], COc1ccccc1[C@H]1CC(=O)C2=C(C1)NC(C)=C(C(=O)O[C@H]1CO[C@H]3OCC[C@H]31)[C@H]2c1cccc(O)c1 [55a, (3R,3aS,6aR)-hexahydrofuro[2,3-b]furan-3-yl (4S, 7R)-4-(3-hydroxyphenyl)-7-(2-methoxyphenyl)-2-methyl-5-oxo-1,4,5,6,7,8-hexahydroquinoline-3-carboxylate] is lower in “rel. potency GFP inhibition” value: 1.42 for the first, 0.61 for the second.

First: CCCCOC(=O)C1=C(C)NC2=C(C(=O)C[C@H](c3ccccc3OC)C2)[C@@H]1c1cccc(O)c1 [59a, butyl (4S, 7R)-4-(3-hydroxyphenyl)-7-(2-methoxyphenyl)-2-methyl-5-oxo-1,4,5,6,7,8-hexahydroquinoline-3-carboxylate]
Second: COc1ccccc1[C@H]1CC(=O)C2=C(C1)NC(C)=C(C(=O)OCCCC(C)(C)C)[C@H]2c1cccc(O)c1 [63a, 4,4-dimethylpentyl (4S, 7R)-4-(3-hydroxyphenyl)-7-(2-methoxyphenyl)-2-methyl-5-oxo-1,4,5,6,7,8-hexahydroquinoline-3-carboxylate]
The “rel. potency GFP inhibition” value of the first is higher: 0.18 for the first, 0.07 for the second.

First: COc1ccccc1[C@H]1CC(=O)C2=C(C1)NC(C)=C(C(=O)OCC(C)(C)C)[C@H]2c1cccc(O)c1 [60a, neopentyl (4S, 7R)-4-(3-hydroxyphenyl)-7-(2-methoxyphenyl)-2-methyl-5-oxo-1,4,5,6,7,8-hexahydroquinoline-3-carboxylate]
Second: CCC(C)(C)COC(=O)C1=C(C)NC2=C(C(=O)C[C@H](c3ccccc3OC)C2)[C@@H]1c1cccc(O)c1 [62a, 2,2-dimethylbutyl (4S, 7R)-4-(3-hydroxyphenyl)-7-(2-methoxyphenyl)-2-methyl-5-oxo-1,4,5,6,7,8-hexahydroquinoline-3-carboxylate]
The “rel. potency GFP inhibition” value of the first is higher: 0.20 for the first, 0.10 for the second.

Compared with CCC(CC)COC(=O)C1=C(C)NC2=C(C(=O)C[C@H](c3ccccc3OC)C2)[C@@H]1c1cccc(O)c1 [61a, 2-ethylbutyl (4S, 7R)-4-(3-hydroxyphenyl)-7-(2-methoxyphenyl)-2-methyl-5-oxo-1,4,5,6,7,8-hexahydroquinoline-3-carboxylate], CCOCCOCCOC(=O)C1=C(C)NC2=C(C(=O)C[C@H](c3ccccc3OC)C2)[C@@H]1c1cccc(O)c1 [64a, 2-(2-ethoxyethoxy)ethyl (4S, 7R)-4-(3-hydroxyphenyl)-7-(2-methoxyphenyl)-2-methyl-5-oxo-1,4,5,6,7,8-hexahydroquinoline-3-carboxylate] is higher in “rel. potency GFP inhibition” value: 0.10 for the first, 0.62 for the second.

CCCCCCOCCOCCOCCOC(=O)C1=C(C)NC2=C(C(=O)C[C@H](c3ccccc3OC)C2)[C@@H]1c1cccc(O)c1 [65a, 2-(2-(2-(hexyloxy)ethoxy)ethoxy)ethyl (4S, 7R)-4-(3-hydroxyphenyl)-7-(2-methoxyphenyl)-2-methyl-5-oxo-1,4,5,6,7,8-hexahydroquinoline-3-carboxylate] was tested, and the “rel. potency GFP inhibition” value was 0.12.

In the case of COc1ccccc1[C@@H]1CC(=O)C2=C(C1)NC(C)=C(C(=O)OC1CCOCC1)[C@H]2c1cccc(O)c1 [13e, tetrahydro-2H-pyran-4-yl-4-(3-hydroxyphenyl)-7-(2-methoxyphenyl)-2-methyl-5-oxo-1,4,5,6,7,8-hexahydro-3-quinolinecarboxylate], the “rel. potency GFP inhibition” value was less than 0.01.
COc1ccccc1[C@H]1CC(=O)C2=C(C1)NC(C)=C(C(=O)OC1CCOCC1)[C@@H]2c1cccc(O)c1 [13f, tetrahydro-2H-pyran-4-yl-4-(3-hydroxyphenyl)-7-(2-methoxyphenyl)-2-methyl-5-oxo-1,4,5,6,7,8-hexahydro-3-quinolinecarboxylate] was tested, and the “rel. potency GFP inhibition” value was less than 0.01.

System: RBL cells
Assay: Cell viability by live-dead staining (cytotoxicity), flow cytometry
Assay type: cell-based, Rat
Conditions: Rattus norvegicus, RBL, cell viability via live/dead staining, 48-65 h, read-out: EC50 Toxicity
Protocol: as §1

COc1ccccc1[C@H]1CC(=O)C2=C(C1)NC(C)=C(C(=O)OC[C@@H]1CCCO1)[C@H]2c1cccc(O)c1 (racemic) [12c, tetrahydro-2-furanylmethyl-4-(3-hydroxyphenyl)-7-(2-methoxyphenyl)-2-methyl-5-oxo-1,4,5,6,7,8-hexahydro-3-quinolinecarboxylate] was tested, and the pEC50 was less than 5.40.

From patent US20260102387A1, “IMMUNOSUPPRESSIVE COMPOUNDS” (UNIVERSITÄT BASEL, priority 2022, published 2026)
